This passage reports IC50 results from BindingDB's records for doi:10.1016/j.bmcl.2007.05.064 (Sungkyunkwan University, 2007).

The assay has as its target cGMP-specific 3',5'-cyclic phosphodiesterase (Homo sapiens, UniProt O76074). Description: Inhibition of PDE5.

Molecules are shown by their SMILES.

In turn, `CCCc1nn(C)c2c(=O)[nH]c(-c3cc(S(=O)(=O)N4CCN(C)CC4)cc4c3OCO4)nc12` showed a half-maximal inhibitory concentration (IC50) of 426 nM.

For orientation: IC50 means the concentration that gives 50% inhibition. Low values mean inhibition by little substance, high ones a need for much substance.
